18 compounds from US20260217708A1, “FUSED BENZAZEPINE DERIVATIVES FOR USE IN THE TREATMENT OF CANCER AND EPILEPSY” (UCB BIOPHARMA SRL, priority 2023, published 2026) can be followed below.

For assay [1], the target named is T1, system Xc^− (Homo sapiens, UniProt Q9UPY5).
T1 sequence (Q9UPY5 1-501): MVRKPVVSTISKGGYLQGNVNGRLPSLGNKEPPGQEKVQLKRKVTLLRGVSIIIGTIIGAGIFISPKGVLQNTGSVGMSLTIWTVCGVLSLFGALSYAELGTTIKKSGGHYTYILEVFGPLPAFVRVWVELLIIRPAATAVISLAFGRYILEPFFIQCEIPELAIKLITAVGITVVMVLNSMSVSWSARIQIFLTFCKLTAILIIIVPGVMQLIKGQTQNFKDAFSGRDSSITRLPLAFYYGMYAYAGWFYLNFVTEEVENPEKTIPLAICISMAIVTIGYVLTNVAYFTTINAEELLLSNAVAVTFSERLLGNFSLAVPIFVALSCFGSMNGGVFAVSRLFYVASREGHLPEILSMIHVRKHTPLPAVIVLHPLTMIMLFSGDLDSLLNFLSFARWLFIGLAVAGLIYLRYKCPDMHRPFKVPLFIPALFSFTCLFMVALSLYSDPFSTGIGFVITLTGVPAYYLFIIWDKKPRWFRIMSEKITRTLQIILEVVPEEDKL
T1 sequence (P08195 1-529 partner): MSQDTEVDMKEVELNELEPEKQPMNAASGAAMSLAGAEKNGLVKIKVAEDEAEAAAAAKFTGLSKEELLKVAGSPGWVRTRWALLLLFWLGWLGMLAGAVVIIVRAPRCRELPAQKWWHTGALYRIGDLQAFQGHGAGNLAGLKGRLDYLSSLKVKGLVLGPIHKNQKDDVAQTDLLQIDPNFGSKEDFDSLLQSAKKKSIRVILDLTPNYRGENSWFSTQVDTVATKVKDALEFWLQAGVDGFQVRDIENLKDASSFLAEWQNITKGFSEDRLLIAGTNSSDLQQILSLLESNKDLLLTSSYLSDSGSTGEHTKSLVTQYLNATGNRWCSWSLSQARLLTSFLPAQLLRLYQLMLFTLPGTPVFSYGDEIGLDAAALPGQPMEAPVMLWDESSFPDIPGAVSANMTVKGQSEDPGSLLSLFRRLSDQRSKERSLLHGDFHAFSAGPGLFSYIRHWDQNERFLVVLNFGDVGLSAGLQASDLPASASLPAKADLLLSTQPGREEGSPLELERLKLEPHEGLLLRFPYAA
The assay is described as follows: [^14C]L-Cystine uptake assay. Format: cell-based. Also noted: endogenous in cells; host or cells: H4 cells. The following applies: H4 cells, sodium-free HEPES buffer, 0.5 μM L-[14C]Cystine and 4.5 μM L-Cystine, 1 hour at 37° C.; read-out: pIC50 [^14C] L-Cystine uptake assay (converted). An outline of the steps: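 H4 cells at 5×10^4 cells/well in sodium-free HEPES buffer were preincubated 15 min with compounds (1% DMSO). Uptake of 0.5 μM [14C]L-cystine plus 4.5 μM unlabelled L-cystine ran 1 hour at 37° C on scintillating plates. IC50 was set between 1% DMSO and 50 μM Erastin controls and expressed as pIC50.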

The target of assay [2] is T1, system Xc^−. Nature of the assay: Cystine-induced glutamate release assay. The following applies: H4 cells, sodium-free HEPES buffer, 50 μM L-Cystine, 2 hours, Amplex Red glutamate readout; read-out: pIC50 Cystine-induced glutamate release assay (converted). Format: cell-based. Also noted: endogenous in cells; host or cells: H4 cells. An outline of the steps:
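H4 cells in sodium-free HEPES buffer (pH 7.4), 2 days after plating; glutamate release induced with 50 μM L-cystine plus compound (1% DMSO), 2 h at 37 °C. Supernatant glutamate measured by Amplex Red fluorescence; IC50/pIC50 derived between 1% DMSO and 50 μM erastin controls.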

Consider `Cc1ccc(NC(=O)CN2C(=O)C(C)c3ccccc3-c3c2cc(C)c(=O)n3C)cc1F` (stereo not drawn) [#120, N-(3-fluoro-4-methyl-phenyl)-2-(1,3,7-trimethyl-2,6-dioxo-7H-pyrido[3,2-d][3]benzazepin-5-yl)acetamide], for which the IC50 on system Xc^− [1] was < 15.8 nM; at system Xc^− [2] it was 15.8 to 39.8 nM.

For `CC1C(=O)N(CC(=O)Nc2ccc(C(F)F)cc2)c2cc(N3C[C@H]4C[C@@H](C3)C4(F)F)nc(F)c2-c2cccnc21` (single isomer, unassigned) [#290, 2-[5-(6,6-difluoro-3-azabicyclo[3.1.1]heptan-3-yl)-3-fluoro-10-methyl-9-oxo-4,8,12-triazatricyclo[9.4.0.0^2,7]pentadeca-1(11),2(7),3,5,12,14-hexaen-8-yl]-N-[4-(difluoromethyl)phenyl]acetamide], the IC50 on system Xc^− [1] was 15.8 to 39.8 nM; on system Xc^− [2] it was 39.8 to 100 nM.

In the case of `Cc1cc2c(c(Cl)n1)-c1cccnc1C(C)C(=O)N2CC(=O)Nc1ccc(C(F)F)cc1` (single isomer, unassigned) [#116, 2-[3-chloro-5,10-dimethyl-9-oxo-4,8,12-triazatricyclo[9.4.0.0^2,7]pentadeca-1(11),2(7),3,5,12,14-hexaen-8-yl]-N-[4-(difluoromethyl)phenyl]acetamide], the IC50 on system Xc^− [1] and on system Xc^− [2] was < 15.8 nM each time.

Regarding `Cc1cc2c(c(Cl)n1)-c1cncnc1[C@@H](C)C(=O)N2CC(=O)Nc1ccc(C(F)(F)F)cc1` (single isomer, unassigned) [#207, Enantiomer (8S) or (8R) of 2-[15-chloro-8,13-dimethyl-9-oxo-4,6,10,14-tetrazatricyclo[9.4.0.0^2,7]pentadeca-1(11),2,4,6,12,14-hexaen-10-yl]-N-[4-(trifluoromethyl)phenyl]acetamide], the IC50 is < 15.8 nM at system Xc^− [1] and 15.8 to 39.8 nM at system Xc^− [2].

Turning to `CC(=O)N(C)c1nc2c(s1)-c1ccccc1CC(=O)N2CC(=O)Nc1ccc(C(F)(F)F)cc1` [#118, 2-[2-[acetyl(methyl)amino]-5-oxo-6H-thiazolo[4,5-d][3]benzazepin-4-yl]-N-[4-(trifluoromethyl)phenyl]acetamide], the figures for the IC50 on system Xc^− [1] and on system Xc^− [2] were 39.8 to 100 nM and 100 to 501 nM, respectively.

Consider `O=C(CN1C(=O)Cc2ncccc2-c2c(F)cncc21)Nc1ccc(C(F)(F)F)cc1` [#78, 2-(3-fluoro-9-oxo-5,8,12-triazatricyclo[9.4.0.0^2,7]pentadeca-1(11),2(7),3,5,12,14-hexaen-8-yl)-N-[4-(trifluoromethyl)-phenyl]acetamide], for which the IC50 on system Xc^− [1] and at system Xc^− [2] was 100 to 501 nM each time.

With `COc1nc(C)cc2c1-c1ccccc1CC(=O)N2CC(=O)Nc1ccc(C(F)(F)F)cc1` [#390, 2-(1-methoxy-3-methyl-6-oxo-7H-pyrido[4,3-d][3]benzazepin-5-yl)-N-[4-(trifluoromethyl)phenyl]acetamide], the IC50 at system Xc^− [1] and on system Xc^− [2] was 15.8 to 39.8 nM each time.

For `Cc1cc2c(cn1)-c1cncnc1C(C)C(=O)N2CC(=O)Nc1ccc(Cl)c(F)c1` (single isomer, unassigned) [#369, N-(4-chloro-3-fluoro-phenyl)-2-[8,13-dimethyl-9-oxo-4,6,10,14-tetrazatricyclo[9.4.0.0^2,7]pentadeca-1(15),2,4,6,11,13-hexaen-10-yl]acetamide], the IC50 on system Xc^− [1] and on system Xc^− [2] was 15.8 to 39.8 nM each time.

For `Cc1cc2c(c(F)n1)-c1ccnn1C(C)C(=O)N2CC(=O)Nc1ccc(C(F)(F)F)cc1` (stereo not drawn) [#111, 2-(14-fluoro-7,12-dimethyl-8-oxo-5,6,9,13-tetrazatricyclo[8.4.0.0^2,6]tetradeca-1(10),2,4,11,13-pentaen-9-yl)-N-[4-(trifluoromethyl)phenyl]acetamide], the IC50 on system Xc^− [1] was 39.8 to 100 nM; at system Xc^− [2] it was 100 to 501 nM.

For the compound `Cc1cc2c(c(F)n1)-c1cccnc1[C@@H](F)C(=O)N2CC(=O)Nc1ccc(C(F)(F)F)cc1` (single isomer, unassigned) [#195, Enantiomer (10R) or (10S) of 2-(3,10-difluoro-5-methyl-9-oxo-4,8,12-triazatricyclo[9.4.0.0^2,7]pentadeca-1(11),2(7),3,5,12,14-hexaen-8-yl)-N-[4-(trifluoromethyl)phenyl]acetamide], the IC50 on system Xc^− [1] and on system Xc^− [2] was < 15.8 nM throughout.

As for `Cc1cc2c(c(F)n1)-c1cccnc1[C@@H](C)C(=O)N2CC(=O)Nc1ccc(C(F)(F)F)c(C)c1` [#137, 2-[(10R)-3-fluoro-5,10-dimethyl-9-oxo-4,8,12-triazatricyclo[9.4.0.0^2,7]pentadeca-1(11),2(7),3,5,12,14-hexaen-8-yl]-N-[3-methyl-4-(trifluoromethyl)phenyl]acetamide], the IC50 at system Xc^− [1] and on system Xc^− [2] was 15.8 to 39.8 nM in each case.

As for `COc1cc2c(c(OC)n1)-c1cccnc1C(C)C(=O)N2CC(=O)Nc1ccc(C(F)(F)F)nc1` (single isomer, unassigned) [#337, 2-[3,5-dimethoxy-10-methyl-9-oxo-4,8,12-triazatricyclo[9.4.0.0^2,7]pentadeca-1(15),2(7),3,5,11,13-hexaen-8-yl]-N-[6-(trifluoromethyl)-3-pyridyl]acetamide], the IC50 on system Xc^− [1] and on system Xc^− [2] was 15.8 to 39.8 nM in each case.

For `CC1C(=O)N(CC(=O)Nc2ccc(Cl)c(F)c2)c2ccnc(OC(F)F)c2-c2cccnc21` (stereo not drawn) [#412, N-(4-chloro-3-fluoro-phenyl)-2-[3-(difluoromethoxy)-10-methyl-9-oxo-4,8,12-triazatricyclo[9.4.0.0^2,7]pentadeca-1(15),2,4,6,11,13-hexaen-8-yl]acetamide], the IC50 at system Xc^− [1] and at system Xc^− [2] was 39.8 to 100 nM each time.

Take `CC1C(=O)N(CC(=O)Nc2ccc(C(F)F)cc2)c2cc(C#N)cc(Cl)c2-c2ccnn21` (stereo not drawn) [#388, 2-(11-chloro-9-cyano-5-methyl-6-oxo-5H-pyrazolo[1,5-d][1,4]benzodiazepin-7-yl)-N-[4-(difluoromethyl)phenyl]acetamide]: the IC50 at system Xc^− [1] and at system Xc^− [2] was 15.8 to 39.8 nM in each case.

Turning to `CC1C(=O)N(CC(=O)Nc2ccc(Cl)c(F)c2)c2cc(N3CC(F)(F)C3)ncc2-c2cccnc21` (single isomer, unassigned) [#293, N-(4-chloro-3-fluoro-phenyl)-2-[5-(3,3-difluoroazetidin-1-yl)-10-methyl-9-oxo-4,8,12-triazatricyclo[9.4.0.0^2,7]pentadeca-1(15),2,4,6,11,13-hexaen-8-yl]acetamide], the results for the IC50 at system Xc^− [1] and at system Xc^− [2] were 15.8 to 39.8 nM and 39.8 to 100 nM, respectively.

With `Cc1cc2c(c(F)n1)-c1cccnc1[C@@H](C)C(=O)N2CC(=O)Nc1ccc(C(C)C)c(F)c1` [#244, 2-[(10R)-3-fluoro-5,10-dimethyl-9-oxo-4,8,12-triazatricyclo[9.4.0.0^2,7]pentadeca-1(11),2(7),3,5,12,14-hexaen-8-yl]-N-(3-fluoro-4-isopropyl-phenyl)acetamide], the IC50 at system Xc^− [1] and at system Xc^− [2] was 15.8 to 39.8 nM throughout.

As to `Cc1cc2c(n(C)c1=O)-c1ccccc1C(C)C(=O)N2CC(=O)Nc1ccc(C(F)(F)F)cc1` (single isomer, unassigned) [#121, N-[4-(trifluoromethyl)phenyl]-2-[1,3,7-trimethyl-2,6-dioxo-7H-pyrido[3,2-d][3]benzazepin-5-yl]acetamide], the IC50 at system Xc^− [1] and on system Xc^− [2] was < 15.8 nM each time.

On to `CC1C(=O)N(CC(=O)Nc2ccc(C(F)F)cc2)c2cc(Cl)cc(F)c2-c2cncnc21` (single isomer, unassigned) [#313, 2-[9-chloro-11-fluoro-5-methyl-6-oxo-5H-pyrimido[4,5-d][1]benzazepin-7-yl]-N-[4-(difluoromethyl)phenyl]acetamide], for which the IC50 was 15.8 to 39.8 nM on system Xc^− [1] and < 15.8 nM at system Xc^− [2].
